From the NIST ThermoML archive (doi:10.1016/j.jct.2013.12.019)

Assay: mn = molality of the nth substance listed, in mol/kg
Conditions: 101 kPa, Liquid, Alternating current cell with electrodes

CCCCCCCCCCCC[N+](C)(C)C.[Br-] [dodecyltrimethylammonium bromide] + O
electrical conductivity [S/m]
Conditions | 293.15 K | 298.15 K | 303.15 K | 308.15 K | 313.15 K
m1 = 0.0015 | 0.014 | 0.0143 | 0.0144 | 0.0153 | 0.0169
m1 = 0.003 | 0.027 | 0.0273 | 0.0278 | 0.0286 | 0.032
m1 = 0.0045 | 0.0397 | 0.0412 | 0.0413 | 0.042 | 0.0469
m1 = 0.006 | 0.0524 | 0.0535 | 0.055 | 0.0551 | 0.061
m1 = 0.0075 | 0.0645 | 0.0669 | 0.0675 | 0.068 | 0.0759
m1 = 0.009 | 0.0763 | 0.0784 | 0.0798 | 0.0808 | 0.0895
m1 = 0.0105 | 0.088 | 0.091 | 0.0908 | 0.0927 | 0.103
m1 = 0.012 | 0.0995 | 0.102 | 0.103 | 0.105 | 0.116
m1 = 0.0135 | 0.111 | 0.113 | 0.114 | 0.117 | 0.129
m1 = 0.015 | 0.121 | 0.123 | 0.126 | 0.128 | 0.137
m1 = 0.0165 | 0.13 | 0.132 | 0.132 | 0.134 | 0.144
m1 = 0.018 | 0.136 | 0.137 | 0.137 | 0.139 | 0.149
m1 = 0.0195 | 0.139 | 0.14 | 0.141 | 0.142 | 0.152
m1 = 0.021 | 0.142 | 0.142 | 0.143 | 0.145 | 0.156
m1 = 0.0225 | 0.145 | 0.145 | 0.146 | 0.148 | 0.16
m1 = 0.024 | 0.147 | 0.148 | 0.149 | 0.151 | 0.162
m1 = 0.0255 | 0.15 | 0.151 | 0.151 | 0.154 | 0.165
m1 = 0.027 | 0.153 | 0.154 | 0.154 | 0.158 | 0.168
m1 = 0.0285 | 0.156 | 0.156 | 0.156 | 0.16 | 0.171
m1 = 0.03 | 0.159 | 0.159 | 0.16 | 0.163 | 0.173
